Literature values as cited in patent EP0114993B1, “Renin inhibitory tripeptides” (Merck & Co., Inc., priority 1982, dated 1990).

Tested on: hog renin
Conditions: after the injection of hog renin into nephrectomized rats; Gross et al., Science 175:656, 1971

Substance: pepstatin
- blood pressure in vivo: reduce blood pressure
